PubChem BioAssay (NCI)
“And” between values parts separate entries of the source, which are not always exact repeats. Identical values can stand only once.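 Cells were grown in 96-well plates and exposed to each compound for 48 hours at five concentrations; endpoints were interpolated linearly between bracketing concentrations, or set to the highest concentration if not reached. GI50 marks 50% less growth. Definition used: TGI = concentration required for complete inhibition of growth.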

Legend:
Assay in all cases: inhibition of tumour cell growth, NCI panel, 48 h
OVCAR-8 ovarian = test system: OVCAR-8 ovarian
A498 renal = test system: A498 renal
SNB-19 CNS = test system: SNB-19 CNS
CCRF-CEM leukemia = test system: CCRF-CEM leukemia
HCT-116 colon = test system: HCT-116 colon
HCT-15 colon = test system: HCT-15 colon
SF-268 CNS = test system: SF-268 CNS
HOP-92 NSCLC = test system: HOP-92 NSCLC
UACC-257 melanoma = test system: UACC-257 melanoma
CAKI-1 renal = test system: CAKI-1 renal

SMILES | TGI (OVCAR-8 ovarian) [µM] | TGI (A498 renal) | TGI (SNB-19 CNS) [µM] | TGI (CCRF-CEM leukemia) [µM] | TGI (HCT-116 colon) | TGI (HCT-15 colon) [µM] | TGI (SF-268 CNS) [µM] | TGI (HOP-92 NSCLC) [µM] | TGI (UACC-257 melanoma) [µM] | TGI (CAKI-1 renal) | GI50 (A498 renal) [µM] | GI50 (SNB-19 CNS) | GI50 (CCRF-CEM leukemia) | GI50 (HCT-116 colon) | GI50 (SF-268 CNS) [µM] | GI50 (CAKI-1 renal) | GI50 (OVCAR-8 ovarian) [nM] | GI50 (HCT-15 colon) [nM] | GI50 (UACC-257 melanoma) [nM]
Cc1cc(=O)n2c3c(c4c(cc13)c(CN(C)C)cc(=O)n4C)OC2 | > 66.6 | > 100 µM | > 74.6 | > 100 | > 69.5 µM | > 56.7 | 55.7 | 97.6 | > 70.5 | 97 µM |  |  |  |  |  |  |  |  | 
O=c1[nH]c2cc([N+](=O)[O-])c(N/N=C/c3ccc(Cl)cc3Cl)c([N+](=O)[O-])c2[nH]1 | > 100 | 48.7 µM | > 100 | > 100 | > 100 µM | > 100 | > 100 | > 100 | > 100 | > 100 µM |  |  |  |  |  |  |  |  | 
O=S(=O)(O)c1ccc2c(N=Nc3ccccc3)c(O)ccc2c1 | > 100 | > 100 µM | > 100 | > 100 | > 100 µM | > 100 | > 100 | > 100 | > 100 | > 100 µM |  |  |  |  |  |  |  |  | 
Cc1ccc(C(=O)Nc2ncn(C3CC(O)C(CO)O3)c(=O)n2)cc1 (stereo not given) | > 100 | > 100 µM | > 100 | > 100 | > 100 µM | > 100 | > 100 | > 100 | > 100 | > 100 µM |  |  |  |  |  |  |  |  | 
CCCCCCCCCCCCSC(=S)c1c(C)[nH]n(CCCCCCCCCCCC)c1=O | > 100 | > 100 µM | > 100 | > 100 | > 100 µM | > 100 | > 100 |  | > 100 | > 100 µM |  |  |  |  |  |  |  |  | 
COC(=O)c1ccc2c(c1)sc1nc(-c3ccc(OC)cc3)cn12 | > 100 | > 100 µM | > 100 | > 100 | > 100 µM | > 100 | > 100 | > 100 | > 100 | > 100 µM |  |  |  |  |  |  |  |  | 
COc1cccc(NC(=O)CC(=O)NN2C(=O)/C(=C/c3ccc(N(CCC#N)CCC#N)cc3)N=C2c2cc([N+](=O)[O-])ccc2Cl)c1 | > 100 |  | > 100 | > 100 | > 100 µM | > 100 | > 100 | > 100 |  | > 100 µM |  |  |  |  |  |  |  |  | 
N#Cc1c(-c2ccc(Cl)cc2)c2c([nH]c1=O)-c1cc([N+](=O)[O-])ccc1CCC2 | 50.8 | 37.7 µM | 56.8 | > 100 | 31.9 µM | 47.6 | 44.2 | 38.5 | 57 | 52.6 µM |  |  |  |  |  |  |  |  | 
C=C1CC2C3C=C(C)C4=CC(=O)CC[C@]4(C)C3CC[C@]2(C)[C@@]1(OC(C)=O)C(C)=O (stereo not given in full) |  | > 100 µM | > 100 | > 100 | > 100 µM |  | > 100 |  |  | > 100 µM | > 100 | > 100000 nM | 2110 nM | 3380 nM | 5.46 | 2960 nM |  |  | 
COc1ccc2c(c1)CCCc1c-2nc2ccccc2c1N | 26.8 | 20.8 µM | 31.8 | 32 | 18.6 µM | 26.5 | 29.2 | 18.9 | 9.56 | 26.8 µM |  |  |  |  |  |  |  |  | 
Cn1c2cn[nH]c(=O)c2c2ccc3ccccc3c21 | > 100 | 80 µM | > 100 | > 100 | > 100 µM | > 100 | 97.2 | 60.8 | > 100 | > 100 µM |  |  |  |  |  |  |  |  | 
COP(=O)(OC)[C@H](O)[C@H]1C[C@@H]1c1ccccc1 | > 100 | > 100 µM | > 100 |  |  | > 100 | > 100 | > 100 | > 100 | > 100 µM |  |  |  |  |  |  |  |  | 
COc1ccc(N=Cc2ccc(N(CCC#N)S(=O)(=O)c3ccccc3)cc2C)cc1 | > 100 |  | > 100 | > 100 | > 100 µM | > 100 | > 100 | > 100 | > 100 | > 100 µM |  |  |  |  |  |  |  |  | 
C[C@H]1CCC/C=C/[C@@H]2C[C@H](O)C[C@H]2[C@H](O)/C=C/C(=O)O1 |  | 0.0821 µM and 0.0376 µM | > 100 | 5.53 | 0.0478 µM and 0.0573 µM and 0.152 µM |  | > 63.3 |  |  | 0.0596 µM and 0.199 µM and 0.36 µM | < 0.0149 | 30.8 nM and 134 nM and 215 nM | < 18.3 nM and 50.1 nM and 98.1 nM | 11.5 nM and 56 nM | < 0.0103 | 22.7 nM and 54.5 nM and 43.8 nM | 43 | 104 | 13.2
O=C(O)CCCN=C(C1=C(O)C(=O)N(c2ccccc2)C1=O)c1ccccc1 | > 100 |  | > 100 | > 100 | > 100 µM | > 100 | > 100 | > 100 | > 100 | > 100 µM |  |  |  |  |  |  |  |  | 
CCN(CCO)CCNc1ccc(C)c2sc3ccccc3c(=O)c12 | 14.2 | 31.2 µM | 24.7 | 27.6 | 7.76 µM | 10.8 | 20.9 | 14.1 | 6.16 | 12.6 µM |  |  |  |  |  |  |  |  | 
